PMC12947280, “An Antifungal with a Novel Mechanism of Action Discovered via Resistance Gene-Guided Genome Mining” (ACS Central Science, 2026)
Values after ≈ are worked out from the molar mass of the structure shown. Where two headings read alike, the source gives them in different places.

Experiments:
Test in all cases: Antifungal screening, broth microdilution MIC
Type in all cases: cell-based
[1] = test system: Scedosporium prolificans ATCC 11274; conditions: for MIC: Lomentospora prolificans, ATCC11274, Scedosporium prolificans ATCC 11274
Protocol: (§1) Antifungal screening of 1
(§2) Antifungal screening was performed by Micromyx, LLC (Kalamazoo, Michigan, USA). Test organisms were either reference strains from the American Type Culture Collection (ATCC; Manassas, VA), the Centers for Disease Control and Prevention (CDC; Atlanta, GA), or clinical isolates from the Micromyx (MMX) collection. Upon receipt at Micromyx, the isolates were streaked under suitable conditions onto agar medium appropriate to each organism. The yeast isolates were incubated for 24 hr at 35 °C and the fungi were incubated for 7 to 13 days at 35 °C, as appropriate. Colonies harvested from these growth plates were resuspended in the appropriate medium containing a cryoprotectant. Aliquots of each suspension were then frozen […]
(§3) Prior to testing, the yeast isolates were streaked from frozen vials onto Sabouraud Dextrose Agar (SAB; Becton Dickenson [BD]/BBL; Sparks, MD, Lot No. 2228660) and were incubated at 35°C for 24 hr. Additional fungal isolates were streaked from frozen vials onto potato dextrose agar (BD/BBL; Sparks, MD, Lot No. 2046481) and incubated under optimal conditions for […]
(§4) All MIC measurements were performed in RPMI1640 from Hyclone Laboratories (Logan, UT;
(§5) Cat. No. SH3001104; Lot No. AC10257966A) buffered with MOPS to pH-7 from Millipore […]
(§6) MIC values were determined using a broth microdilution procedure described by CLSI. 5,6.
(§7) Automated liquid handlers (Multidrop 384, Labsystems, Helsinki, Finland; Biomek 3000 and […]
(§8) Biomek FX, Beckman Coulter Fullerton CA) were used to conduct serial dilutions and liquid […]
(§9) Solutions of 1 were added in an 11 point 2x serial dilution in DMSO with a maximum tested concentration of 32 μg/ml in the culture medium. Drug solution was added at 1% v/v into 200 μl […]
(§10) A standardized inoculum of each test organism was prepared in appropriate media per CLSI methods.5,6 The plates were then inoculated with 10 µL of the diluted inoculum using the Biomek 3000 from low to high drug concentration, resulting in a final concentration of approximately 0.5 to 2.5 x 10^3 CFU/mL for yeast and 0.2 to 2.5 x 10^4 CFU/mL for the other fungi. An un-inoculated plate was incubated for the purpose of assessing solubility of the drug […]
(§11) The plates were stacked 3 to 4 high, covered with a sterile lid on the top plate, and incubated aerobically at 35 °C for 24, 48, and 72 h. For yeast, both the MIC based on complete inhibition and 50% inhibition were reported at 24 and 48 h. For other fungal isolates, the MIC values were recorded at 24 and 48 hr and were based on complete inhibition and 50% inhibition.
(§12) Intact protein LCMS analysis
(§13) 10 μM of recombinant S. cerevisiae ALS was incubated with 10 μM compound 1 in buffer (50 mM Tris pH 7.5, 100 mM KCl, 10 uM FAD, 1 mM TPP, 10 mM MgCl2 (with 2.5% DMSO from compound)) at 22 °C for 30 min. Unreacted 1 was removed by passing the reaction mixture through a 30 kDa MWCO filter (Millipore). The collected protein was then denatured and reduced by incubation with 6 M urea and 10 mM DTT at 37 °C for 1 h followed by 20 mM iodoacetamide alkylation for 30 min in dark. This reaction mixture then underwent buffer exchange into 100 mM Tris-HCl pH 8.0 and 10 mM CaCl2 buffer using a 30 kDa MWCO filter.
(§14) The protein was then incubated with sequencing grade chymotrypsin (Promega) (15:1,w/w) for […]
(§15) After digestion, the peptide mixture was immediately analysed by LC-MS/MS using a Waters I-class UPLC equipped with an ACQUITY UPLC BEH C18 column (2.1x50 mm, 1.7 µm, Waters) at 50 °C coupled to a Waters Synapt G2Si MS. The sample was injected and subjected to an LC gradient starting from 0.5% mobile phase B (ACN with 0.1% formic acid) for 5 min with linear increase to 40% B over 35 min. Mobile phase A was 0.1% formic acid water. Flow rate was maintained at 0.3 ml/min. MS/MS data was acquired in positive ionization mode with data dependent MS/MS acquisition. Peptide mapping was performed with PEAKs Studio 8.0 (Bioinformatics Solutions Inc.) followed by manual review to identify peptides putatively modified by covalent addition of 1. […]

[2] = test system: Fusarium solani ATCC MYA-3636; conditions: for MIC: Fusarium solani ATCC MYA-3636
Protocol: as §1, §2, §3, §4, §5, §6, §7, §8, §9, §10, §11, §12, §13, §14, §15

[3] = test system: Scedosporium apiospermum ATCC MYA-3635; conditions: for MIC: Scedosporium apiospermum ATCC MYA-3635
Protocol: as §1, §2, §3, §4, §5, §6, §7, §8, §9, §10, §11, §12, §13, §14, §15

[4] = test system: Aspergillus flavus ATCC 204304; conditions: for MIC: ATCC204304, Aspergillus flavus ATCC 204304
Protocol: as §1, §2, §3, §4, §5, §6, §7, §8, §9, §10, §11, §12, §13, §14, §15

[5] = 24 hr, read-out: MIC 100% growth inhibition
[6] = 24 hr, read-out: MIC >50% growth inhibition
[7] = 48 hr, read-out: MIC 100% growth inhibition
[8] = 48 hr, read-out: MIC >50% growth inhibition

Question: What does the source list for CCCC1C(C)=CC2CC=CC3(C)C2C1C(=O)C31C(=O)NC(CCCO)C1=O (centres unmarked) [compound 1]?
Answer: MIC [1, 5]: 8 µg/mL (≈ 20.8 µM); MIC [1, 6]: 2 µg/mL (≈ 5.19 µM); MIC [1, 7]: > 32 µg/mL; MIC [1, 8]: > 32 µg/mL; MIC (Table S5) ([1]; Scedosporium prolificans, species summary): 8; MIC [2, 5]: > 32 µg/mL; MIC [2, 6]: > 32 µg/mL; MIC [2, 7]: > 32 µg/mL; MIC [2, 8]: > 32 µg/mL; MIC (Table S5) ([2]; Fusarium solani, species summary): > 32; MIC [3, 5]: 8 µg/mL (≈ 20.8 µM); MIC [3, 6]: 1 µg/mL (≈ 2.59 µM); MIC [3, 7]: > 32 µg/mL; MIC [3, 8]: > 32 µg/mL; MIC (Table S5) ([3]; Scedosporium apiospermum, species summary): 8; MIC [4, 5]: > 32 µg/mL; MIC [4, 6]: > 32 µg/mL; MIC [4, 7]: > 32 µg/mL; MIC [4, 8]: > 32 µg/mL; MIC (Table S5) ([4]; Aspergillus flavus, species summary): > 32
